The NIST ThermoML archive (doi:10.1021/je9002306)

What was measured:
[1] = cn = amount concentration of the nth substance listed, in mol/dm3; conditions: 298.15 K, 101.3 kPa, Liquid, Wayne-Kerr 6430B Auto Balance Bridge
[2] = mn = molality of the nth substance listed, in mol/kg; conditions: 298.15 K, 101.3 kPa, Liquid, Vibrating tube method

CCCCCCCCCCn1cc[n+](C)c1.[Br-] [1-decyl-3-methylimidazolium bromide] + CN(C)C=O
Conditions	mass density [kg/m3]	molar conductivity [S·m2/mol]
[1], c1 = 0.0001732	–	0.007794
[1], c1 = 0.0002484	–	0.007742
[1], c1 = 0.0003119	–	0.007708
[1], c1 = 0.0003859	–	0.007672
[1], c1 = 0.0004585	–	0.007636
[1], c1 = 0.0005275	–	0.007607
[1], c1 = 0.0005939	–	0.007575
[1], c1 = 0.0006636	–	0.007549
[1], c1 = 0.0007275	–	0.007523
[1], c1 = 0.0007761	–	0.007502
[2], m1 = 0.004548	944.601	–
[2], m1 = 0.009331	944.904	–
[2], m1 = 0.01416	945.206	–
[2], m1 = 0.01889	945.493	–
[2], m1 = 0.02351	945.774	–
[2], m1 = 0.02843	946.065	–
[2], m1 = 0.03329	946.353	–
[2], m1 = 0.03813	946.64	–
[2], m1 = 0.04346	946.942	–
[2], m1 = 0.04852	947.237	–

CCCCCCCCCCn1cc[n+](C)c1.[Br-] [1-decyl-3-methylimidazolium bromide] + C[S+](C)[O-]
Conditions	mass density [kg/m3]	molar conductivity [S·m2/mol]
[1], c1 = 0.0002071	–	0.003508
[1], c1 = 0.0003447	–	0.003485
[1], c1 = 0.0004551	–	0.003472
[1], c1 = 0.000577	–	0.003459
[1], c1 = 0.0006934	–	0.003446
[1], c1 = 0.0008066	–	0.003433
[1], c1 = 0.0008974	–	0.003426
[1], c1 = 0.001043	–	0.003413
[1], c1 = 0.001234	–	0.003397
[2], m1 = 0.005147	1095.4	–
[2], m1 = 0.00868	1095.45	–
[2], m1 = 0.01336	1095.53	–
[2], m1 = 0.01682	1095.59	–
[2], m1 = 0.02087	1095.65	–
[2], m1 = 0.02779	1095.77	–
[2], m1 = 0.03347	1095.87	–
[2], m1 = 0.04096	1096	–
[2], m1 = 0.04462	1096.07	–
[2], m1 = 0.05299	1096.22	–

CCCCCCCCCCn1cc[n+](C)c1.[Br-] [1-decyl-3-methylimidazolium bromide] + OCCO
Conditions	mass density [kg/m3]	molar conductivity [S·m2/mol]
[1], c1 = 0.0003546	–	0.000667
[1], c1 = 0.0004359	–	0.000666
[1], c1 = 0.0005147	–	0.000664
[1], c1 = 0.0005865	–	0.000663
[1], c1 = 0.0006739	–	0.000661
[1], c1 = 0.0007633	–	0.00066
[1], c1 = 0.0008415	–	0.000659
[1], c1 = 0.0009056	–	0.000658
[1], c1 = 0.0009847	–	0.000657
[1], c1 = 0.001065	–	0.000656
[2], m1 = 0.005851	1109.99	–
[2], m1 = 0.0106	1110	–
[2], m1 = 0.01551	1110	–
[2], m1 = 0.01977	1110.01	–
[2], m1 = 0.02479	1110.01	–
[2], m1 = 0.02646	1110.02	–
[2], m1 = 0.03544	1110.02	–
[2], m1 = 0.03722	1110.02	–
[2], m1 = 0.04453	1110.03	–

CCCCCCCCCCCCn1cc[n+](C)c1.[Br-] [1-dodecyl-3-methylimidazolium bromide] + CN(C)C=O
Conditions	mass density [kg/m3]	molar conductivity [S·m2/mol]
[1], c1 = 0.0001357	–	0.007691
[1], c1 = 0.0001826	–	0.007656
[1], c1 = 0.0002263	–	0.007631
[1], c1 = 0.0002718	–	0.007605
[1], c1 = 0.0003169	–	0.007581
[1], c1 = 0.0003578	–	0.007564
[1], c1 = 0.0004043	–	0.007541
[1], c1 = 0.0004399	–	0.007527
[1], c1 = 0.0004725	–	0.00751
[1], c1 = 0.0005219	–	0.007494
[2], m1 = 0.003861	944.545	–
[2], m1 = 0.008055	944.798	–
[2], m1 = 0.0123	945.047	–
[2], m1 = 0.01627	945.277	–
[2], m1 = 0.02032	945.508	–
[2], m1 = 0.02446	945.745	–
[2], m1 = 0.02703	945.89	–
[2], m1 = 0.03337	946.237	–
[2], m1 = 0.03725	946.45	–
[2], m1 = 0.04099	946.651	–

CCCCCCCCCCCCn1cc[n+](C)c1.[Br-] [1-dodecyl-3-methylimidazolium bromide] + C[S+](C)[O-]
Conditions	mass density [kg/m3]	molar conductivity [S·m2/mol]
[1], c1 = 0.0003026	–	0.003442
[1], c1 = 0.0003758	–	0.003429
[1], c1 = 0.0004555	–	0.003416
[1], c1 = 0.0005343	–	0.003406
[1], c1 = 0.0006078	–	0.003397
[1], c1 = 0.0006771	–	0.003389
[1], c1 = 0.0007464	–	0.003381
[1], c1 = 0.0008059	–	0.003374
[1], c1 = 0.0009021	–	0.003365
[2], m1 = 0.00268	1095.36	–
[2], m1 = 0.004967	1095.36	–
[2], m1 = 0.007868	1095.37	–
[2], m1 = 0.01038	1095.38	–
[2], m1 = 0.01304	1095.39	–
[2], m1 = 0.016	1095.41	–
[2], m1 = 0.01873	1095.42	–
[2], m1 = 0.02082	1095.43	–
[2], m1 = 0.02457	1095.44	–
[2], m1 = 0.02736	1095.46	–
